Experimental data reported in US20160221992A1, “DENDRITIC COMPOUNDS INCLUDING A CHELATING, FLUOROCHROME OR RECOGNITION AGENT, COMPOSITIONS INCLUDING SAME AND USES THEREOF” (UNIVERSITE DE STRASBOURG, priority 2013, published 2016).

Columns and labels:
[1] = tested on: murine melanoma (B16FO line); assay: Quantitative study of tumoral fixation and biodistribution of the radiolabeled compound (ex-vivo gamma counting after IV injection); assay type: in vivo, C57B16 mice; conditions: for Ratio (g)/Al TU/kidneys / Ratio (g)/Al Tu/Liver / Ratio (g)/Al Tu/Lungs / Ratio (g)/Al Tu/blood / Total Elimination (% del ‘Al’) / Tumor (g/Al %) / Total Elimination: Indium-111-radiolabeled, IV
Protocol: C57B16 mice bearing xenografts of murine melanoma (B16FO line) obtained by subcutaneous injection of 300 000 cells suspended in 100 μl of RPMI culture medium are injected subcutaneously in the back. The experiment is performed when the tumors are palpable. i.e. about 10 days […]. All the experiments (tumoral graft, injection and imaging) are carried out under isoflurane/oxygen (2.5%/2.5%) gas anesthesia.
Injection of 50 to 100 microliters of the radiolabeled solution, with a maximum activity of 20 MBQ, by direct intravenous injection (caudal vein). The activity of the empty syringe after injection+compress is also measured for calculating the actual activity injected (actual Ac injected=Ac normalized full syringe—normalized activity (empty syringe and compress). Normalization consists in calculating the theoretical activity at one and the same time chosen as reference (for example the time of injection). The measurements are performed on a regularly calibrated activity meter for medical use (Medisystem©).
Scintigraphic imaging is carried out using a dedicated small animal micro-5 imager SPECT-CT (BIOSCAN™). A planar scintigraphic image is obtained immediately after injection to verify absence of intracaudal stasis. If there is stasis, the mouse will be sacrificed at late times (24 or 48 h). Static scintigraphic images may be recorded at 2 h, 4 h, 24 h and 48 h (Imager micro-SPECT-CT BIOSCAN©).
This is done ex-vivo by gamma counting of the various samples, using a gamma well counter for medical use, regularly calibrated for the isotopes used (Tc-99m and In-111). The animals are euthanized according to the protocols allowed by the animal ethics committee at 2 h, 4 h, 24 h or 48 h. The main organs are removed (brain, spleen, kidneys, lungs, heart, alimentary canal, liver) as well as a fragment of skin, muscle, bone and a blood sample and the whole tumor. Each sample is weighed and its gamma activity is counted in a sample-changing well counter for dedicated medical use, calibrated for the radioelements used. The animal's carcass is also weighed after removing the tail; these samples are incinerated and their gamma activity is also measured. The gamma activity of the samples containing all the collected urine and the feces is also measured. The activity of each sample is normalized (relative to the time of injection), and the ratio of the activity of each sample is calculated relative to the total activity injected (=the sum of all of the activities measured except that of the tail), expressed in % per gram of tissue, for calculating the ratio of the activity present in the tumor relative to the main organs (liver, kidneys, lungs and blood). The percentage of the activity eliminated is calculated.
The mean values of all of the data for all of the mice whose data are exploitable are calculated, as well as after eliminating the animals with urinary excretion that is too quick (>50% at 2 h or 75% at 4 h, as well as the mice with tumors >2 g, as the existence of necrosis may distort the calculation of the ratio of fixation in the tumor).
The biodistribution data of the various dendrimer compounds coupled to the IFC01102 ligand (also called amine R) and to a chelating agent are compared with those of the ligand alone coupled to the DOTA chelating agent (compound AP045) and radiolabeled with the same radioelement. 8.5 Results with Compound APAG9-1 (Radiolabeled with Tc99m) The radiochemical purity is above 95%, according to the chromatographic profile obtained as described above (example 5). 12 animals were injected. The average activity injected is 3.5±2.4 MBq. 2 animals were euthanized at 2 h, 4 at 24 h and 48 h post-injection. Examples of planar image immediately post-injection and 2 hours post-injection are illustrated in FIG. 3.

[2] = tested on: murine melanoma (B16FO line); assay: as above; assay type: in vivo, C57B16 mice
[3] = Lymphatic drainage after intradermal injection in the hind paws (sentinel lymph node characterization, scintigraphy/SPECT); assay type: in vivo, mouse
Protocol: Scintigraphic imaging is performed using a dedicated small animal micro-5 imager SPECT-CT (BIOSCAN™). A planar scintigraphic image is obtained immediately after injection to verify absence of intracaudal stasis. Static scintigraphic images may be recorded at 2 h, 4 h, 24 h and 48 h (Imager micro-SPECT-CT BIOSCAN©).
Intradermal injection of 1 to 20 microliters of a suspension of radiolabeled dendrimers with a hypodermic syringe in the pad of the hindpaw of a nude mouse. A whole-body planar scintigraphic image of the mouse is obtained 5 minutes after injection to verify absence of passage of the compound through the blood. Acquisition of tomographic images (SPECT) every 30 minutes to monitor the lymphatic drainage of the compound and determine the time of disappearance of the signal in the popliteal lymph node. 9.3.a Injection of Compound X1 Labeled with Tc99m (Generation 2 Molecule)

[4] = cited from earlier work
[5] = 48 post-IV, animals with low urinary excretion or under hydric restriction
[6] = 2 h post-iv, animals with low urinary excretion or under hydric restriction
[7] = 4 h post-IV, animals with low urinary excretion or under hydric restriction
[8] = 24 h post-IV, animals with low urinary excretion or under hydric restriction
[9] = 24 hours after intradermal injection at the two hind paws, Tc99m, 2.8 MBq

CCN(CC)CCNC(=O)c1cnc2cc(NC(=O)NCCOCCOCCNC(=O)CN3CCN(CC(=O)O)CCN(CC(=O)O)CCN(CC(=O)O)CC3)ccc2n1 [AP045, reference compound]
Ratio (g)/Al TU/kidneys ([1]; 48 post-IV): 4.06E−01
Ratio (g)/Al Tu/Liver ([1]; 48 post-IV): 7.14E−02
Ratio (g)/Al Tu/Lungs ([1]; 48 post-IV): 2.97E+00
Ratio (g)/Al Tu/blood ([1]; 48 post-IV): 9.95E+00
Total Elimination (% del ‘Al’) ([1]; 48 post-IV): 7.23E+01 % del ‘Al’
Tumor (g/Al %) ([1]; 48 post-IV): 1.19E+00 g/Al %
Ratio (g)/Al TU/kidneys ([1]; 4 h post-IV): 2.45E−01
Ratio (g)/Al Tu/Liver ([1]; 4 h post-IV): 4.97E−02
Ratio (g)/Al Tu/Lungs ([1]; 4 h post-IV): 1.92E+00
Ratio (g)/Al Tu/blood ([1]; 4 h post-IV): 1.12E+01
Tumor (g/Al %) ([1]; 4 h post-IV): 1.44E+00 g/Al %
tumor ratio relative to the liver ([1]; 24 hours after IV injection, Indium-111): greater than 1
Ratio (g)/Al TU/kidneys ([1]; 24 h post-IV): 2.93E−01
Ratio (g)/Al Tu/Liver ([1]; 24 h post-IV): 1.31E+00
Ratio (g)/Al Tu/Lungs ([1]; 24 h post-IV): 3.55E+00
Total Elimination (% del ‘Al’) ([1]; 24 h post-IV): 90.33 % del ‘Al’
Tumor (g/Al %) ([1]; 24 h post-IV): 1.77E+00 g/Al %
time at which the maximum tumoral uptake is observed ([1]; after IV injection of the radiolabeled compound): 24 h
Total Elimination (% del ‘Al’) ([2]; 4 h post-IV, Indium-111-radiolabeled, IV): 6.38E+01 % del ‘Al’
tumor/kidney ratio (in words) ([2]; Indium-111, activity in the kidneys still high): unfavorable

CCN(CC)CCNC(=O)c1cnc2cc(NC(=O)NCCOCCOCCNC(=O)CCOCCOCCOCCOCCNC(=O)CCN(CCNC(=O)CCN(CCC(=O)NCCN(CCC(=O)NCCOCCOCCOCCOCCC(=O)NCCOCCOCCNC(=O)Nc3ccc4nc(C(=O)NCCN(CC)CC)cnc4c3)CCC(=O)NCCOCCOCCOCCOCCC(=O)NCCOCCOCCNC(=O)Nc3ccc4nc(C(=O)NCCN(CC)CC)cnc4c3)Cc3cn(CCOCCOCCOCCOCCNC(=O)CN4CCN(CC(=O)O)CCN(CC(=O)O)CCN(CC(=O)O)CC4)nn3)CCC(=O)NCCOCCOCCOCCOCCC(=O)NCCOCCOCCNC(=O)Nc3ccc4nc(C(=O)NCCN(CC)CC)cnc4c3)ccc2n1 [AP070]
Ratio (g)/Al TU/kidneys [1, 5]: 5.23E−01
Ratio (g)/Al Tu/Liver [1, 5]: 1.59E+00
Ratio (g)/Al Tu/Lungs [1, 5]: 6.28E+00
Ratio (g)/Al Tu/blood [1, 5]: 1.74E+01
Total Elimination [1, 5]: 8.4E+01
Tumor (g/Al %) [1, 5]: 3.60E+00 g/Al %
Ratio (g)/Al TU/kidneys [1, 6]: 3.6E−01
Ratio (g)/Al Tu/Liver [1, 6]: 1.4E+00
Ratio (g)/Al Tu/Lungs [1, 6]: 2.1E+00
Ratio (g)/Al Tu/blood [1, 6]: 1.9E+00
Total Elimination [1, 6]: 4.8E+01
Tumor (g/Al %) [1, 6]: 5.9E+00 g/Al %
tumoral uptake (in words) ([1]; 4 hours after IV injection, Indium-111): high
Ratio (g)/Al TU/kidneys [1, 7]: 3.96E−01
Ratio (g)/Al Tu/Liver [1, 7]: 1.28E+00
Ratio (g)/Al Tu/Lungs [1, 7]: 2.93E+00
Ratio (g)/Al Tu/blood [1, 7]: 3.07E+00
Total Elimination [1, 7]: 2.6E+01
Tumor (g/Al %) [1, 7]: 1.27E+01 g/Al %
Ratio (g)/Al TU/kidneys [1, 8]: 2.58E−01
Ratio (g)/Al Tu/Liver [1, 8]: 4.06E−01
Ratio (g)/Al Tu/Lungs [1, 8]: 3.52E+00
Ratio (g)/Al Tu/blood [1, 8]: 2.00E+01
Total Elimination [1, 8]: 6.8E+01
Tumor (g/Al %) [1, 8]: 3.69E+00 g/Al %
tumoral uptake compared with the ligand alone (AP045) ([1]; APAG22-1: at two hours post-IV): far higher
tumor/liver ratio relative to the compound AP071 ([1]; Indium-111): less favorable
tumoral uptake relative to the compound AP071 ([2]; notably at 4 hours, Indium-111): lower

COCCOCCOCCOCCOc1cc(C(=O)NCCCCNC(=O)CN2CCN(CC(=O)O)CCN(CC(=O)O)CCN(CC(=O)O)CC2)cc(OCCOCCOCCOCCOC)c1OCCOCCOCCOCCOC [APAG4]
drainage in the entire lymphatic network as far as the lumbar-aortic stage ([3]; SPECT 3 h after intradermal injection, indium-111, 10 MBq): clearly visible

O=C([O-])CN(CCN(CC(=O)[O-])CC(=O)O)CCN(CC(=O)[O-])CC(=O)O.[Gd+3] [Gd(III)-DTPA]
relaxation rate r1 ([4]; 0.6 T, 20° C.): 5400 M⁻¹ s⁻¹

COCCOCCOCCOCCOc1cc(COc2cc(OCc3cc(OCCOCCOCCOCCOC)c(OCCOCCOCCOCCOC)c(OCCOCCOCCOCCOC)c3)cc(C(=O)NCCCNC(=O)C(CCCNC(=O)c3cccc(O)c3O)(CCCNC(=O)c3cccc(O)c3O)CCCNC(=O)c3cccc(O)c3O)c2)cc(OCCOCCOCCOCCOC)c1OCCOCCOCCOCCOC [X1]
hepatic activity [3, 9]: very low
level of urinary elimination [3, 9]: very high

Gadomer-17
r1 ([4]; 1.5 T and 37° C.): 15.2 mM⁻¹ s⁻¹
